These results are taken from patent US20050032745A1, “Modified low molecular weight heparin that inhibits clot associated coagulation factors” (Hamilton Civic Hospitals Res Dev., Inc., priority 2000, published 2005).

The test system of one experiment is washed plasma clot. The experiment is described as follows: procoagulant activity of washed plasma clot incubated in unanticoagulated whole blood. The format is biochemical. The source says: There is mounting evidence that both fibrin-bound thrombin and platelet-bound factor Xa contribute to the intense procoagulant activity of thrombi. […] Development of these agents requires an understanding of the mechanisms by which fibrin-bound IIa and platelet-bound factor Xa are protected from inactivation by heparin, LMWH and hirudin.

Another experiment has as its system injured rabbit aorta. The experiment is described as follows: rabbit arterial thrombosis prevention model (flow distal to 95% stenosis in injured aorta). Format: in vivo. The note with it: FIG. 11. How it is done: This example illustrates a study comparing the efficacy and safety of the MLMWH compounds of the present invention, which are denoted in the figures as V21, LMWH, heparin and hirudin in a the rabbit arterial thrombosis prevention model. […] The arterial thrombosis prevention model was modified so that both efficacy and safety could be assessed in the same animal. Efficacy was assessed by measuring flow over 90 minutes distal to a 95% stenosis in an injured rabbit aorta, and safety was assessed by measuring blood loss over 30 minutes using the rabbit ear model. The four compounds were compared at three dosage levels. Each compound was administered as a bolus and infusion for 90 minutes. The doses listed in the following figures represent the bolus and infusion/60 minutes, administered for 90 minutes. The doses for heparin are shown as units/Kg, for LMWH and V21 as mg/Kg and for hirudin as mg/Kg. V21 has similar anti-Xa activity to LMWH and about twice the anti-IIa activity of LMWH. Thus, the specific activity of LMWH is 100 anti-Xa/mg and 30 anti-IIa units/mg. The specific activity of V21 is 100 anti-Xa units/mg and 60 anti-IIa units/mg, whereas the specific activity of heparin is about 150 anti-Xa units and 150 anti-IIa units/mg. The anticoagulants were compared in the following dosages. […]

In the case of “TAP: tick anticoagulant peptide, a direct inhibitor of factor Xa (YNRLCIKPRDWIDECDSNEGGERAYFRNGKGGCDSFWICPEDHTGADYYSSYRDCFNACI; UniProt P17726 1-60, looked up)”, in the experiment with washed plasma clot, the “blocking of the ability of a washed plasma clot to accelerate coagulation” value was “cannot be blocked”. Turning to hirudin, the “response of the model to the antithrombotic effects” value with injured rabbit aorta is given as “very responsive”. In the experiment with washed plasma clot, the “blocking of the ability of a washed plasma clot to accelerate coagulation” value was “cannot be blocked”.
